As a reminder, the melting point is the temperature of the solid-liquid transition.

Structures can show the parent of a compound that is named as a salt. Where two headings read alike, the source gives them in different places.

Series [1] relates to parental wild-type Ba/F3 cells. Briefly: Ba/F3 (WT) cell proliferation assay (Alamar Blue). The format is cell-based. The settings on record: Mus musculus; for IC50: 72 hours, Alamar Blue, read-out: BaF3 WT prolif. (Resazurin is reduced to fluorescent resorufin, in cell work by metabolically active cells.)
Series [2] has as its system LP-1 cell line (FGF-1/Heparin induced pERK). As to the kind of experiment: Cell-based pERK ELISA, LP-1 cells. The settings on record: Homo sapiens, LP-1, read-out: LP-1 pERK ELISA (μM). Background: In an ELISA, binding on a coated surface is turned into a signal by an enzyme label.
The next series addresses VEGFR2 (Homo sapiens (Human), UniProt P35968). As to the kind of experiment: VEGFR2 in vitro kinase inhibitory activity assay (TRF, Flt3 substrate). Format: biochemical.
For a further series, the system named is Ba/F3-TEL-FGFR3 cells. Briefly: Ba/F3-TEL-FGFR3 cell proliferation assay (Alamar Blue). Format: cell-based. The settings on record: for IC50: 72 hours, Alamar Blue, read-out: BaF3-TEL-FGFR3 prolif.
For another series, the target named is FGFR3 (Homo sapiens (Human), UniProt P22607). Briefly: FGFR3 in vitro kinase inhibitory activity assay (TRF). The settings on record: 3 h, read-out: FGFR3 % I.
Setting [3] is: BaF3, read-out: BaF3 WT prolif, % inhibition.

Sequence of FGFR3 (P22607 23-806): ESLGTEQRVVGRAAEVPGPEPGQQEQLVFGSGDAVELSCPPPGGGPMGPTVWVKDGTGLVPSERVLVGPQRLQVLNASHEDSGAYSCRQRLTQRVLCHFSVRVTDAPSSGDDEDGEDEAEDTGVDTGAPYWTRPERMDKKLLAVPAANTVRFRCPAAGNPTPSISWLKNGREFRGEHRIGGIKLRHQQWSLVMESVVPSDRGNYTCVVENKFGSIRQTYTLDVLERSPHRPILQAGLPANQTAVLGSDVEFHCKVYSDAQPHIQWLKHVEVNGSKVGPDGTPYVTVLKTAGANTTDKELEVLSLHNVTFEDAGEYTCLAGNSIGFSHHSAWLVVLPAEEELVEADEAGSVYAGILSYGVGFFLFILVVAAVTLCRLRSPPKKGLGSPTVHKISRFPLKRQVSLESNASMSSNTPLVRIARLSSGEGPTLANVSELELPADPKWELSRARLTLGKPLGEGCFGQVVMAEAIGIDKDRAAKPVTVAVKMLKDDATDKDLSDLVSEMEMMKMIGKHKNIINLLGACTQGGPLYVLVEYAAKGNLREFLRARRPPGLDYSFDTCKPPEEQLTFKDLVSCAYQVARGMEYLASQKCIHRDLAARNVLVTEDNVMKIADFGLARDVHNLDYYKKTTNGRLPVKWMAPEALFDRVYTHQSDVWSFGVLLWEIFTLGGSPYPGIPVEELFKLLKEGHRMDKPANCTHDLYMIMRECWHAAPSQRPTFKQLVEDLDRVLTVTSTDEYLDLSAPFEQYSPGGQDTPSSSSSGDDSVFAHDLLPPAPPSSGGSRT
Sequence of VEGFR2 (P35968 20-1356): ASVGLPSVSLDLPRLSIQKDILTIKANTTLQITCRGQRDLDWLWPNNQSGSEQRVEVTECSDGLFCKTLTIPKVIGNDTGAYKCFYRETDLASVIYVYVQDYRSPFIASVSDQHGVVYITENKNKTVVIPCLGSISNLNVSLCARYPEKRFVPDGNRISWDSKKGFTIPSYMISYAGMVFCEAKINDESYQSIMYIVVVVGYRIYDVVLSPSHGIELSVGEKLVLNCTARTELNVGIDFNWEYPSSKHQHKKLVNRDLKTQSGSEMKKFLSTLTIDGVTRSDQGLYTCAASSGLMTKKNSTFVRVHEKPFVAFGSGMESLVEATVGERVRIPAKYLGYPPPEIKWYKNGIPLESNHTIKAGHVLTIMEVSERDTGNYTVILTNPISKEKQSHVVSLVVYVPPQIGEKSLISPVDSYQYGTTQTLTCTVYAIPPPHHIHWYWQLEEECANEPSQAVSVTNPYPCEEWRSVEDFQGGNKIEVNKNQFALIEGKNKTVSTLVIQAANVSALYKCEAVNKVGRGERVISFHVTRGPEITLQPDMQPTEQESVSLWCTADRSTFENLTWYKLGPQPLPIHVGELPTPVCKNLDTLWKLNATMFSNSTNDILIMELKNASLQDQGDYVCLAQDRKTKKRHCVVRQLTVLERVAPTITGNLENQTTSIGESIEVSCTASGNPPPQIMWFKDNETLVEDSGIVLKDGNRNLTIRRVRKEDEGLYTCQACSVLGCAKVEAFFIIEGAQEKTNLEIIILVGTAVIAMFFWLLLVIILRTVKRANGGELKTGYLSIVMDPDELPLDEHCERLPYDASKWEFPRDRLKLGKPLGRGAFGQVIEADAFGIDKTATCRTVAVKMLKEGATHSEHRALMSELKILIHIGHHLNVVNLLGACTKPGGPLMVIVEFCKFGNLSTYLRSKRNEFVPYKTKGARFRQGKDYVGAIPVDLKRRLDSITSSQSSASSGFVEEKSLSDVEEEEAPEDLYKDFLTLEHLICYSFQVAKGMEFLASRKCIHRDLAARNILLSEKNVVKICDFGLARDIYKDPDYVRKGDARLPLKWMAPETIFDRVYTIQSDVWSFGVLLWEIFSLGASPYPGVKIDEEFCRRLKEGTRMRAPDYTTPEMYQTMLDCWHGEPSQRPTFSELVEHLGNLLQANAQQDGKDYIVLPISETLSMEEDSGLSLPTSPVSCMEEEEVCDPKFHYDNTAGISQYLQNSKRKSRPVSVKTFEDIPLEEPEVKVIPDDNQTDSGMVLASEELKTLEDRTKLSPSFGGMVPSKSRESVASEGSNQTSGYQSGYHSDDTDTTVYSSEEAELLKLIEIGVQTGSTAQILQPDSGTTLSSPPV

`NC(=O)Nc1cccc(-c2cnc3cc(-c4nncs4)ccn23)c1` [Compound 268] showed a melting point of 259 °C. The inhibition at 3 µM in series [1] (setting [3]) came to 23.5%. Moreover, in series [2], the IC50 stood at 1.83 µM.
For `N#Cc1ccnc(-c2ccn3c(-c4cccc(NC(=O)NCC(F)(F)F)c4)cnc3c2)n1` [Compound 253], the melting point was 210 °C. Besides, the IC50 in series [1] (BaF3) worked out at 1800 nM.
`O=C(NCC(F)(F)F)Nc1cccc(-c2cnc3cc(-c4nccc(N5CCNCC5)n4)ccn23)c1` (as salt: HCl) (hydrate or solvate) [Compound 269] returned a melting point of 200 °C.
As to `Cc1nnc(-c2ccn3c(-c4cccc(NC(=O)NC5CC5)c4)cnc3c2)o1` [Compound 157B], the melting point amounted to 229.6 °C.
In the case of `Nc1nnc(-c2ccn3c(-c4cccc(NC(=O)NCC(F)(F)F)c4)cnc3c2)s1` [Compound 261], the melting point was more than 260 °C. In series [1] (setting [3]), the inhibition at 10 µM is 0%.
In turn, `CS(=O)(=O)Nc1nc(-c2ccn3c(-c4cccc(NC(=O)NCC(F)(F)F)c4)cnc3c2)ncc1F` [Compound 279] returned a melting point of more than 350 °C. Also, the inhibition at 10 µM in series [1] (setting [3]) turned out to be 7%.
The molecule `CCNC(=O)Nc1cccc(-c2cnc3cc(C#Cc4cncn4C)ccn23)c1` [Compound 264] gave a melting point of 163 °C. Moreover, in series [1] (setting [3]), the inhibition at 10 µM was 25%. Moreover, in series [2], the IC50 came out at 0.31 µM.
`N#Cc1cnc(-c2ccn3c(-c4cccc(NC(=O)NCC(F)(F)F)c4)cnc3c2)nc1N` [Compound 165B]: the melting point is 161 °C.
Still for that read-out and setting: under `Nc1nc(-c2ccn3c(-c4cccc(NC(=O)NCC(F)(F)F)c4)cnc3c2)ncc1C(=O)O` (as salt: HCl) (hydrate or solvate) [Compound 277] stands more than 260 °C.
In the case of `N#Cc1ccc(-c2ccn3c(-c4cccc(NC(=O)NCC(F)(F)F)c4)cnc3c2)nn1` [Compound 255], the melting point is 267 °C. The inhibition at 10 µM in series [1] (setting [3]) came out at 0%.
On to `CN(C)Cc1cnc(-c2ccn3c(-c4cccc(NC(=O)NCC(F)(F)F)c4)cnc3c2)nc1N` [Compound 260], for which the melting point amounted to 130 °C. Further, the inhibition at 1 µM in series [1] (setting [3]) is 0%.
As for `Cn1cncc1C#Cc1ccn2c(-c3cccc(NC(N)=O)c3)cnc2c1` [Compound 267], the melting point is 162 °C. For the same molecule, the inhibition at 10 µM in series [1] (setting [3]) was 55%.
In turn, `CC(C)COC(=O)Nc1nc(-c2ccn3c(-c4cccc(NC(=O)NCC(F)(F)F)c4)cnc3c2)ncc1F` [Compound 273] registered a melting point of 215.2 °C. Also, the inhibition at 1 µM on VEGFR2 (1 h, read-out: VEGFR2 % I) was 40%. For the same molecule, the inhibition at 10 µM in series [1] (setting [3]) came to 43%.
In the case of `O=C(NCC(F)(F)F)Nc1cc(F)cc(-c2cnc3cc(-c4ccnc(C(F)(F)F)n4)ccn23)c1` [Compound 251], the melting point was 263 °C. In addition, in series [1] (setting [3]), the inhibition at 10 µM came to 0%.
Molecule `O=C(NCC(F)(F)F)Nc1cccc(-c2cnc3cc(-c4nccc(N5CCN(CCO)CC5)n4)ccn23)c1` [Compound 270] gave a melting point of 179.8 °C. Moreover, the inhibition at 3 µM in series [1] (setting [3]) turned out to be 16%.
In turn, `O=C(NCC(F)(F)F)Nc1cccc(-c2cnc3cc(-c4nnc(NC5CC5)s4)ccn23)c1` [Compound 250] had a melting point of more than 280 °C. Besides, the inhibition at 3 µM in series [1] (setting [3]) stood at 25%. Moreover, the IC50 in series [1] (BaF3) turned out to be 1730 nM. The IC50 in series [2] worked out at 0.075 µM.
In the case of `Nc1nc(-c2ccn3c(-c4cccc(NC(=O)NCC(F)(F)F)c4)cnc3c2)ncc1CN1CCC1` [Compound 259], the melting point was 195 °C. The IC50 in series [1] (BaF3) stood at 2600 nM.
In turn, `Nc1nc(-c2ccn3c(-c4cc(NC(=O)NCC(F)(F)F)cc(C(F)(F)F)c4)cnc3c2)ncc1F` [Compound 258] yielded a melting point of 185 °C. For the same molecule, the inhibition at 1 µM at VEGFR2 (1 h, read-out: VEGFR2 % I) stood at 37%. Moreover, the inhibition at 3 µM in series [1] (setting [3]) was 36%.
In the case of `O=C(NCC(F)(F)F)Nc1cccc(-c2cnc3cc(-c4ccc(C(F)(F)F)nn4)ccn23)c1` [Example 229], the inhibition at 0.3 µM at VEGFR2 (1 h, at 0.3 μM, read-out: VEGFR2 % I) is 59%. The IC50 worked out at 320 nM in the series on Ba/F3-TEL-FGFR3 cells and 5500 nM in series [1] (BaF3). Further, the inhibition at 0.03 µM on FGFR3 was 67%.
In turn, `NCc1cc(NC(=O)NCC(F)(F)F)cc(-c2cnc3cc(-c4ccnc(C(F)(F)F)n4)ccn23)c1` [Compound 274] showed a melting point of 190 °C. For the same molecule, on VEGFR2 (1 h, read-out: VEGFR2 % I), the inhibition at 1 µM is 55%.
Consider `O=C(Nc1cccc(-c2cnc3cc(-c4nncs4)ccn23)c1)NC1CC1` [Compound 158B], for which the melting point was found to be 205 °C.
Turning to `Cn1cncc1C#Cc1ccn2c(-c3cncc(NC(=O)NCC(F)(F)F)c3)cnc2c1` [Compound 265], the melting point was more than 250 °C. The molecule also displayed an IC50 against VEGFR2 of more than 30 µM.
Take `O=C(NCC(F)(F)F)Nc1cccc(-c2cnc3cc(-c4ncc(CO)cn4)ccn23)c1` [Compound 276]: the melting point is 222 °C. For the same molecule, the inhibition at 1 µM in series [1] (setting [3]) is 0%.
In the case of `COC(=O)c1cc(NC(=O)NCC(F)(F)F)cc(-c2cnc3cc(-c4ccnc(C(F)(F)F)n4)ccn23)c1` [Compound 307], the inhibition at 1 µM on VEGFR2 (1 h, read-out: VEGFR2 % I) was 58%. Moreover, the inhibition at 10 µM with Ba/F3-TEL-FGFR3 cells (at 10 μM, read-out: BaF3-TEL-FGFR3 prolif, % inhibition) was 25%; in series [1] (BaF3, at 10 μM, read-out: BaF3 WT prolif, % inhibition), 0%. Also, the inhibition at 0.03 µM on FGFR3 turned out to be 39%.
Regarding `CC(C)(O)c1cnc(-c2ccn3c(-c4cccc(NC(=O)NCC(F)(F)F)c4)cnc3c2)nc1` [Compound 257], the melting point turned out to be 146 °C. Further, the IC50 in series [1] (BaF3) turned out to be 3900 nM.
Take `NCC1CCN(c2ccc(-c3ccn4c(-c5cccc(NC(=O)NCC(F)(F)F)c5)cnc4c3)cn2)CC1` [Compound 271]: the melting point is 80 °C. Besides, the IC50 in the series on Ba/F3-TEL-FGFR3 cells turned out to be 63 nM. The IC50 in series [1] (BaF3) is 120 nM. Besides, the inhibition at 0.001 µM on FGFR3 is 59%.
On to `CN(C)S(=O)(=O)NCC1CCN(c2ccc(-c3ccn4c(-c5cccc(NC(=O)NCC(F)(F)F)c5)cnc4c3)cn2)CC1` [Compound 272], for which the melting point was 145 °C. Moreover, the IC50 in the series on Ba/F3-TEL-FGFR3 cells turned out to be 51 nM. Besides, in series [1] (BaF3), the IC50 turned out to be 200 nM. Also, the inhibition at 0.00097 µM on FGFR3 amounted to 51%.
As for `CC(O)c1cnc(-c2ccn3c(-c4cccc(NC(=O)NCC(F)(F)F)c4)cnc3c2)nc1` (stereo not shown) [Compound 278], the melting point came out at 224 °C. Moreover, in series [1] (setting [3]), the inhibition at 1 µM amounted to 0%.
The molecule `COc1cc(NC(=O)NCC(F)(F)F)cc(-c2cnc3cc(-c4ncc(F)c(N)n4)ccn23)c1` [Compound 252] yielded a melting point of 154 °C. The IC50 against VEGFR2 is more than 1 µM. Also, in series [1] (setting [3]), the inhibition at 1 µM amounted to 0%.
Turning to `O=C(NCC(F)(F)F)Nc1cccc(-c2cnc3cc(C#Cc4nccn4CCO)ccn23)c1` [Compound 262], the melting point came to 228 °C. For the same molecule, the inhibition at 10 µM in series [1] (setting [3]) worked out at 20%.

(Values after patent publication US8796244B2, “Imidazopyridine derivatives as inhibitors of receptor tyrosine kinases” (Astex Therapeutics Ltd, priority 2008, dated 2014).)
